Assay results reported in patent publication US9062051B2, “Compounds and pharmaceutical compositions thereof for the treatment of proliferative disorders” (GALAPAGOS NV, priority 2014, dated 2015).

Each compound was assayed against T1, Recombinant EphA7 (Homo sapiens, UniProt Q15375) (assay: EphA7 assay (33P incorporation into poly GT, filter plate)). Details: EphA7 potency; 0.15 μM ATP; read-out: IC50.
T1 construct: purchased Carna 08-126
Assay type: biochemical
Description: The principle of the assay consists of the measurement of incorporated ^33P into the substrate poly GT when phosphorylated by the enzyme EphA7 using [^33P]-γ-ATP and ATP. Unincorporated ^33P is removed by loading the samples on a filter plate (using a harvester, Perkin Elmer) and 6 subsequent washing steps. ^33P incorporated in polyGT is measured on a Topcount after addition of microscint to the filter plates (Perkin Elmer).
Recombinant EphA7 (Carna Cat#08-126, 2 ng per well) was incubated with 0.1 mg/mL Poly(Glu,Tyr)sodium salt (4:1), MW 20 000-50 000 (Sigma catalog number P0275) in kinase reaction buffer (10 mM MOPS pH 7.2, 5 mM DTT, 0.01% Triton-X100, 5 mM MnCl2, 0.5 mM Na3VO4, 5 mM beta-glycerolphosphate), 0.15 μM non-radioactive ATP, 0.125 μCi/25 μl ^33P-gamma-ATP (Perkin Elmer, catalog number NEG602K) final concentrations with or without 5 μL containing test compound or vehicle (DMSO, 1% final concentration), in a total volume of 25 μL, in a polypropylene 96-well plate (Greiner, V-bottom). After 90 min at 30° C., reactions were stopped by adding of 25 μL/well of 150 mM phosphoric acid. All of the terminated kinase reaction was transferred to prewashed (75 mM phosphoric acid) 96 well filter plates (Perkin Elmer catalog number 6005177) using a cell harvester (Perkin Elmer). Plates were washed 6 times with 300 μL per well of a 75 mM phosphoric acid solution and the bottom of the plates was sealed. 40 μL/well of Microscint-20 was added, the top of the plates was sealed and readout was performed using the Topcount (Perkin Elmer). The ability of a test compound to inhibit the kinase activity was determined using counts per minutes (cpm) measured by the Topcount as:
Cpm (cpd): cpm determined for sample with test compound present
Cpm (control): cpm determined for sample with positive control inhibitor (10 μM staurosporine)
Cpm (vehicle): cpm determined in the presence of vehicle (1% DMSO)
Dose dilution series were prepared for the compounds enabling the testing of dose-response effects in the EphA7 assay and the calculation of the IC50 for each compound. Each compound was routinely tested at concentration of 20 μM followed by a 1/5 serial dilution, 10 points in a final concentration of 1% DMSO. When potency of compound series increased, more dilutions may be prepared and/or the top concentration may be lowered (e.g. 5 μM, 1 μM).

T1 sequence (Q15375 579-998 limits assumed): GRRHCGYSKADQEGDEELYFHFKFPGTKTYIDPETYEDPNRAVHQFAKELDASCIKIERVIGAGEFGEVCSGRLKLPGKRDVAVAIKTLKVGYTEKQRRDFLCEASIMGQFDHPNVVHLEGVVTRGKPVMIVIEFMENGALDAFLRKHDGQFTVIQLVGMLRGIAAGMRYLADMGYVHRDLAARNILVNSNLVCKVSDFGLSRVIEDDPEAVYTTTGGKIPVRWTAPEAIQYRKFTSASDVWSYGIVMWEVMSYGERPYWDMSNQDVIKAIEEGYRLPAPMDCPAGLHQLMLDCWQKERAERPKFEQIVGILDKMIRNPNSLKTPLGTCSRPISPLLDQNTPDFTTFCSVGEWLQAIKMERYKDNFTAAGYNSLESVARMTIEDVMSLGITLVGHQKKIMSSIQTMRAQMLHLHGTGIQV

Question: How did the IC50 turn out when `CCc1n[nH]c2nc(-c3cc(NC(=O)c4cc(OCCN5CCOCC5)cc(C5CC5)c4)cnc3C)ccc12` [Compound 43, 3-Cyclopropyl-N-[5-(3-ethyl-1H-pyrazolo[3,4-b]pyridin-6-yl)-6-methyl-pyridin-3-yl]-5-(2-morpholin-4-yl-ethoxy)-benzamide] was run?
Answer: 0.01 to 250 nM

These compounds were tested against T2, EphA2 (UniProt Ref: P29317) (Homo sapiens, UniProt P29317) (assay: EphA2 assay (Reaction Biology HotSpot radioactive kinase assay)). Details: ATP 10 μM; read-out: EphA2 potency IC50.
T2 construct: purchased Reaction Biology
T2 sequence (P29317 24-976): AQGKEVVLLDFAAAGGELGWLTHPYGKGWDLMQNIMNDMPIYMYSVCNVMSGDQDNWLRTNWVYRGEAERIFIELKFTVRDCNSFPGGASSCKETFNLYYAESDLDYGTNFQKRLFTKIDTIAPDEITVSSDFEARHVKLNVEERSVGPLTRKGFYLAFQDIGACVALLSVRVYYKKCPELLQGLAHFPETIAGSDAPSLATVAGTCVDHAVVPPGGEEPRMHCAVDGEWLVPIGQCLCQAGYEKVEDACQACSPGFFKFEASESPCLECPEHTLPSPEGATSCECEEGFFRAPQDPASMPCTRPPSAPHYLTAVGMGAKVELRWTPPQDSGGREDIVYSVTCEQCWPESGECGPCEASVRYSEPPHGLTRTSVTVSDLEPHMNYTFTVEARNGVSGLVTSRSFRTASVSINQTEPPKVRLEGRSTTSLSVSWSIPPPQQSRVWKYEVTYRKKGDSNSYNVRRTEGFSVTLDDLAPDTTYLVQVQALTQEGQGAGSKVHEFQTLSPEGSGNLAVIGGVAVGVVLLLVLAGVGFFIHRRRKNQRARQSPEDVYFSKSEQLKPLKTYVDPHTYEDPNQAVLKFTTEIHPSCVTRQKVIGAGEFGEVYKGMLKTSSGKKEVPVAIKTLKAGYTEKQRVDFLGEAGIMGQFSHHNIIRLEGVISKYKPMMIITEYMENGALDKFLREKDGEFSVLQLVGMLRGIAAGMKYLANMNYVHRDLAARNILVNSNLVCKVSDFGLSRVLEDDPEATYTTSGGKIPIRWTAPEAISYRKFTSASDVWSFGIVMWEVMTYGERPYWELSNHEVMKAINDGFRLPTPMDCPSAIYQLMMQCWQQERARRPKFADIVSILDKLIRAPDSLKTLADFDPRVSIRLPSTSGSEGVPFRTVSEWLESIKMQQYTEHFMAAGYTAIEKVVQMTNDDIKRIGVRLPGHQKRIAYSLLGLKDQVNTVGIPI
Assay type: biochemical
Description: Inhibition of EphA2 (UniProt Ref: P29317) by a test compound is determined by a commercially available Reaction Biology proprietary nanoliter radioactive HotSpot^SM assay (Reaction Biology, One great valley parkway, Suite 2, Malvern Pa., 19355, USA). The principle of the assay consists of the measurement of incorporated ^33P into poly[Glu:Tyr] (4:1) (0.2 mg/mL) when the substrate is phosphorylated by the enzyme using [^33P]-γ-ATP and ATP (10 μM).
To determine the IC50, a serial dilution of compound is tested starting from 10, or 3 μM (highest dilution) with a 1/3 dilution.

Question: For `Cc1ccc(NC(=O)c2cccc(C(F)(F)F)c2)cc1-c1ccc2c(CO)n[nH]c2n1` [Compound 1, N-(3-(3-(hydroxymethyl)-1H-pyrazolo[3,4-b]pyridin-6-yl)-4-methylphenyl)-3-(trifluoromethyl)benzamide], which IC50 is on record?
Answer: 0.01 to 25 nM

Question: How did the IC50 turn out when `CCc1n[nH]c2nc(-c3cc(NC(=O)c4cc(C)cc(OC)c4)ccc3C)ccc12` [Compound 19, N-[3-(3-Ethyl-1H-pyrazolo[3,4-b]pyridin-6-yl)-4-methyl-phenyl]-3-methoxy-5-methyl-benzamide] was run?
Answer: 0.01 to 25 nM

Question: Which IC50 does the source give for `CCc1n[nH]c2nc(-c3cc(NC(=O)c4cc(OC)cc(OC)c4)ccc3Cl)ccc12` [Compound 22, N-[4-Chloro-3-(3-ethyl-1H-pyrazolo[3,4-b]pyridin-6-yl)-phenyl]-3,5-dimethoxy-benzamide] here?
Answer: 25 to 50 nM

Question: Which IC50 does the source give for `CCc1n[nH]c2nc(-c3cc(NC(=O)c4cc(C)cc(OCCO)c4)ccc3C)ccc12` [Compound 23, N-[3-(3-Ethyl-1H-pyrazolo[3,4-b]pyridin-6-yl)-4-methyl-phenyl]-3-(2-hydroxy-ethoxy)-5-methyl-benzamide] here?
Answer: 0.01 to 25 nM

Question: `CCc1n[nH]c2nc(-c3cc(NC(=O)c4cc(C)cc(OCCN(C)C)c4)ccc3C)ccc12` [Compound 25, 3-(2-Dimethylamino-ethoxy)-N-[3-(3-ethyl-1H-pyrazolo[3,4-b]pyridin-6-yl)-4-methyl-phenyl]-5-methyl-benzamide] was tested. Which IC50 did it give?
Answer: 0.01 to 25 nM

Question: For `CCc1n[nH]c2nc(-c3cc(NC(=O)c4cc(N(C)C)cc(C(F)(F)F)c4)ccc3C)ccc12` [Compound 26, 3-Dimethylamino-N-[3-(3-ethyl-1H-pyrazolo[3,4-b]pyridin-6-yl)-4-methyl-phenyl]-5-trifluoromethyl-benzamide], which IC50 is on record?
Answer: 50 to 100 nM

Question: How did the IC50 turn out when `CCc1ccc(NC(=O)c2cc(OC)cc(OC)c2)cc1-c1ccc2c(CC)n[nH]c2n1` [Compound 32, N-[4-Ethyl-3-(3-ethyl-1H-pyrazolo[3,4-b]pyridin-6-yl)-phenyl]-3,5-dimethoxy-benzamide] was run?
Answer: 50 to 100 nM

Question: With `CCc1n[nH]c2nc(-c3cc(NC(=O)c4cc(OC)cc(C(F)(F)F)c4)ccc3C)ccc12` [Compound 33, N-[3-(3-Ethyl-1H-pyrazolo[3,4-b]pyridin-6-yl)-4-methyl-phenyl]-3-methoxy-5-trifluoromethyl-benzamide] as the compound, how does the IC50 read?
Answer: 0.01 to 25 nM

Question: With `CCc1n[nH]c2nc(-c3cc(NC(=O)c4cc(OC)cc(OCCN)c4)ccc3C)ccc12` [Compound 39, 3-(2-amino-ethoxy)-N-[3-(3-ethyl-1H-pyrazolo[3,4-b]pyrin-6-yl)-4-methylphenyl]-5-methoxybenzamide] as the compound, how does the IC50 read?
Answer: 0.01 to 25 nM

Question: `CCc1n[nH]c2nc(-c3cc(NC(=O)c4cc(OC)cc(OCCN5CCOCC5)c4)ccc3C)ccc12` [Compound 41, N-[3-(3-Ethyl-1H-pyrazolo[3,4-b]pyridin-6-yl)-4-methyl-phenyl]-3-methoxy-5-(2-morpholin-4-yl-ethoxy)-benzamide] was tested. Which IC50 did it give?
Answer: 0.01 to 25 nM

Question: For `CCc1n[nH]c2nc(-c3cc(NC(=O)c4cc(OCCN5CCOCC5)cc(C5CC5)c4)cnc3C)ccc12` [Compound 43, 3-Cyclopropyl-N-[5-(3-ethyl-1H-pyrazolo[3,4-b]pyridin-6-yl)-6-methyl-pyridin-3-yl]-5-(2-morpholin-4-yl-ethoxy)-benzamide], which IC50 is on record?
Answer: 0.01 to 25 nM

Question: `CCc1n[nH]c2nc(-c3cc(NC(=O)c4cc(OC)cc(OCCN)c4)cnc3C)ccc12` [Compound 44, 3-(2-Amino-ethoxy)-N-[5-(3-ethyl-1H-pyrazolo[3,4-b]pyridin-6-yl)-6-methyl-pyridin-3-yl]-5-methoxy-benzamide] was tested. Which IC50 did it give?
Answer: 50 to 100 nM

Question: With `COc1cc(OC)cc(C(=O)Nc2ccc(C)c(-c3ccc4c([C@@H](C)O)n[nH]c4n3)c2)c1` [Compound 48, N-{3-[3-((R)-1-Hydroxy-ethyl)-1H-pyrazolo[3,4-b]pyridin-6-yl]-4-methyl-phenyl}-3,5-dimethoxy-benzamide] as the compound, how does the IC50 read?
Answer: 25 to 50 nM

Question: How did the IC50 turn out when `CCc1n[nH]c2nc(-c3cc(NC(=O)c4cc(OC)cc(C5CC5)c4)ccc3C)ccc12` [Compound 51, 3-Cyclopropyl-N-[3-(3-ethyl-1H-pyrazolo[3,4-b]pyridin-6-yl)-4-methyl-phenyl]-5-methoxy-benzamide] was run?
Answer: 0.01 to 25 nM

Question: For `Cc1cc(C)cc(C(=O)Nc2cnc(C)c(-c3ccc4c(C)n[nH]c4n3)c2)c1` [Compound 52, 3,5-Dimethyl-N-[6-methyl-5-(3-methyl-1H-pyrazolo[3,4-b]pyridin-6-yl)-pyridin-3-yl]-benzamide], which IC50 is on record?
Answer: 0.01 to 25 nM

Question: With `Cc1ncc(NC(=O)c2cccc(C(F)(F)F)c2)cc1-c1ccc2c(C)n[nH]c2n1` [Compound 53, N-[6-Methyl-5-(3-methyl-1H-pyrazolo[3,4-b]pyridin-6-yl)-pyridin-3-yl]-3-trifluoromethyl-benzamide] as the compound, how does the IC50 read?
Answer: 0.01 to 25 nM

Question: With `Cc1cc(C)cc(C(=O)Nc2ccc(C)c(-c3ccc4c(C(C)O)n[nH]c4n3)c2)c1` (stereo not drawn) [Compound 54, N-{3-[3-(1-Hydroxy-ethyl)-1H-pyrazolo[3,4-b]pyridin-6-yl]-4-methyl-phenyl}-3,5-dimethyl-benzamide] as the compound, how does the IC50 read?
Answer: 0.01 to 25 nM
